The values below come from ChEMBL document CHEMBL4418493, “N-hydroxyformamide compounds and compositions comprising them for use as BMP1, TLL1 and/or TLL2 inhibitors” (2018).

A short description of data set [1]: Reduction in PICP levels in human cardiac fibroblasts incubated for 24 to 48 hrs by ELISA. The format is functional.
The nature of data set [2]: Drug metabolism in heparinized pooled human plasma at pH 7.5 assessed as formation of (3-ethoxy-5-(5-((((R)-2-((R)-1-(N-hydroxyformamido)propyl)heptanamido)methyl)carbamoyl) furan-2-yl)phenyl)phosphonic acid at 100 to 2000 ng/ml incubated up to 4 or 24 hrs by LC-MS/MS analysis. The settings on record: pH 7.5, 24 h. Format: ADME, cell-free.

pIC50: −log10 of the molar value.

As a reminder, the pIC50 is the negative decadic logarithm of the IC50, by convention in mol/L. For the molecule `CCCCC[C@@H](C(=O)NCNC(=O)c1ccc(-c2cc(OCC)cc(P(=O)(O)O)c2)o1)[C@@H](CC)N(C=O)OC(=O)c1ccc(OC)cc1C.N.N`, the pIC50 in data set [1] was above 5.40. Also, the Drug metabolism entry in data set [2] is given as “Metabolite_Detected”.
The like results for `CCCCC[C@@H](C(=O)NCNC(=O)c1ccc(-c2cc(OCC)cc(P(=O)(O)O)c2)o1)[C@@H](CC)N(C=O)OC(=O)C(CC)CC` were, in that order, above 5.40 and “Metabolite_Detected”.
In the case of `CCCCC[C@@H](C(=O)NCNC(=O)c1ccc(-c2cc(OCC)cc(P(=O)(O)O)c2)o1)[C@@H](CC)N(C=O)OC(=O)c1ccccc1O`, in data set [1], the pIC50 was above 5.40. In addition, the Drug metabolism entry in data set [2] is reported as “Metabolite_Detected”.
Taken in the same sequence, the figures for `CCCCC[C@@H](C(=O)NCNC(=O)c1ccc(-c2cc(OCC)cc(P(=O)(O)O)c2)o1)[C@@H](CC)N(C=O)OC(=O)c1ccc(N2CCCC2)cc1.N.N` were above 5.40 and “Metabolite_Detected”.
Taken in the same sequence, the figures for `CCCCC[C@@H](C(=O)NCNC(=O)c1ccc(-c2cc(OCC)cc(P(=O)(O)O)c2)o1)[C@@H](CC)N(C=O)OC(=O)c1ccc(N2CCOCC2)cc1C.N.N` were above 5.40 and “Metabolite_Detected”.
As to `CCCCC[C@@H](C(=O)NCNC(=O)c1ccc(-c2cc(OCC)cc(P(=O)(O)O)c2)o1)[C@@H](CC)N(C=O)OC(=O)c1ccc(OC)cc1C(C)C`, the pIC50 in data set [1] was above 5.40. In addition, in data set [2], the Drug metabolism entry is “Metabolite_Detected”.
Taken in the same sequence, the figures for `CCCCC[C@@H](C(=O)NCNC(=O)c1ccc(-c2cc(OCC)cc(P(=O)(O)O)c2)o1)[C@@H](CC)N(C=O)OC(=O)c1ccc(N2CCCC2=O)cc1.N.N` were above 5.40 and “Metabolite_Detected”.
In data set [1], `CCCCC[C@@H](C(=O)NCNC(=O)c1ccc(-c2cc(OCC)cc(P(=O)(O)O)c2)o1)[C@@H](CC)N(C=O)OC(=O)NC(C)(C)C` had a pIC50 above 5.40. In data set [2], the Drug metabolism result was “Metabolite_Detected”.
Regarding `CCCCC[C@@H](C(=O)NCNC(=O)c1ccc(-c2cc(OCC)cc(P(=O)(O)O)c2)o1)[C@@H](CC)N(C=O)OC(=O)c1ccc2c(c1)N(C)CCO2.N.N`, the pIC50 in data set [1] was above 5.40. Also, in data set [2], the Drug metabolism result is “Metabolite_Detected”.
Taken in the same sequence, the figures for `CCCCC[C@@H](C(=O)NCNC(=O)c1ccc(-c2cc(OCC)cc(P(=O)(O)O)c2)o1)[C@@H](CC)N(C=O)OC(=O)c1c(C)cccc1OCOP(=O)(O)O.N.N.N.N` were above 5.40 and “Metabolite_Detected”.
Take `CCCCC[C@@H](C(=O)NCNC(=O)c1ccc(-c2cc(OCC)cc(P(=O)(O)O)c2)o1)[C@@H](CC)N(C=O)OC(=O)c1ccc(N2CCCC2)c(F)c1.N.N`: the negative logarithm of the IC50 (pIC50) in data set [1] is above 5.40. Also, in data set [2], the Drug metabolism result was “Metabolite_Detected”.
Taken in the same sequence, the figures for `CCCCC[C@@H](C(=O)NCNC(=O)c1ccc(-c2cc(OCC)cc(P(=O)(O)O)c2)o1)[C@@H](CC)N(C=O)OC(=O)NC(C)C` were above 5.40 and “Metabolite_Detected”.
Take `CCCCC[C@@H](C(=O)NCNC(=O)c1ccc(-c2cc(OCC)cc(P(=O)(O)O)c2)o1)[C@@H](CC)N(C=O)OC(=O)Nc1ccccc1`: the pIC50 in data set [1] was above 5.40. Moreover, the Drug metabolism entry in data set [2] is “Metabolite_Detected”.
Taken in the same sequence, the figures for `CCCCC[C@@H](C(=O)NCNC(=O)c1ccc(-c2cc(OCC)cc(P(=O)(O)O)c2)o1)[C@@H](CC)N(C=O)OC(=O)c1ccc2c(c1)OCCN2C` were above 5.40 and “Metabolite_Detected”.
As for `CCCCC[C@@H](C(=O)NCNC(=O)c1ccc(-c2cc(OCC)cc(P(=O)(O)O)c2)o1)[C@@H](CC)N(C=O)OC(=O)c1ccc(-n2cccc2)cc1.N.N`, the Drug metabolism result in data set [2] is on record as “Metabolite_Detected”.
The molecule `CCCCC[C@@H](C(=O)NCNC(=O)c1ccc(-c2cc(OCC)cc(P(=O)(O)O)c2)o1)[C@@H](CC)N(C=O)OC(=O)c1ccc(CN2CCOCC2)cc1C` had a negative logarithm of the IC50 (pIC50) in data set [1] above 5.40. In addition, in data set [2], the Drug metabolism entry is on record as “Metabolite_Detected”.
Turning to `CCCCC[C@@H](C(=O)NCNC(=O)c1ccc(-c2cc(OCC)cc(P(=O)(O)O)c2)o1)[C@@H](CC)N(C=O)OC(=O)NC(C)(C)c1ccccc1`, in data set [2], the Drug metabolism result was “Metabolite_Detected”.
